Read-outs that look alike come from different tables or passages of the source.
Key:
[1] = log P by HPLC on reversed-phase columns (OECD Guideline 117), neutral range; assay type: physicochemical; conditions: for chromatographic logP: reversed-phase (C18) HPLC column
[2] = test system: Myzus persicae; experiment: Myzus persicae oral test (MYZUPE O); assay type: in vivo; conditions: for Emax at 4 ppm / pest or weed control at 20 ppm / Emax at 0.8 ppm: Myzus persicae, po, 120 h; for Emax at 4 ppm / Emax at 0.8 ppm: read-out: % efficacy; for pest or weed control at 20 ppm: read-out: efficacy
Description: Solvent: 100 parts by weight of acetone
(§1) To produce a suitable preparation of active compound, 1 part by weight of active compound is dissolved using the specified parts by weight of solvent and made up with water until the desired concentration is attained.
50 μl of the active compound preparation are transferred into microtitre plates and made up to a final volume of 200 μl with 150 μl of IPL41 insect medium (33%+15% sugar). Subsequently, the plates are sealed with parafilm, which a mixed population of green peach aphids (Myzus persicae) within a second microtitre plate is able to puncture and imbibe the solution through it.
After 5 days, the efficacy in % is determined. 100% means that all the aphids have been killed; 0% means that no aphids have been killed.
Myzus persicae—Oral Test (MYZUPE O)
After 5 or 6 days (dat), the efficacy in % is determined. 100% means that all the aphids have been killed; 0% means that no aphids have been killed.

[3] = test system: Myzus persicae; experiment: Myzus persicae spray test (MYZUPE), Chinese cabbage leaf discs; assay type: in vivo; conditions: for Emax at 100 g/ha / pest or weed control at 500 g/ha: Myzus persicae, foliar; for Emax at 100 g/ha: read-out: % efficacy; for pest or weed control at 500 g/ha: read-out: efficacy
Description: Myzus persicae—Spray Test
as §1, with “water containing an emulsifier concentration of 1000 ppm” for “water”, “attained. To produce further test concentrations, the formulation is diluted with emulsifier-containing water.” for “attained.”
Discs of Chinese cabbage leaves (Brassica pekinensis) infested by all stages of the green peach aphid (Myzus persicae) are sprayed with an active compound formulation of the desired concentration.
After 5 or 6 days, the efficacy in % is determined. 100% means that all the aphids have been killed; 0% means that no aphids have been killed.
Myzus persicae—Spray Test (MYZUPE)
Discs of Chinese cabbage leaves (Brassica pekinensis) infested by all stages of the green peach aphid (Myzus persicae) are sprayed with an active compound preparation of the desired concentration.
After the desired period of time, the efficacy in % is determined. 100% means that all the aphids have been killed; 0% means that no aphids have been killed.

[4] = test system: Aphis gossypii; experiment: Aphis gossypii spray test on cotton plants; assay type: in vivo; conditions: for pest or weed control at 20 ppm: Aphis gossypii, 144 h, read-out: efficacy (kill)
Description: Aphis gossypii—Spray Test
Solvent: 14 parts by weight of dimethylformamide
Emulsifier: alkylaryl polyglycol ether
To produce a suitable preparation of active compound, 1 part by weight of active compound is dissolved using the specified parts by weight of solvent and made up with water containing an emulsifier concentration of 1000 ppm until the desired concentration is attained. To produce further test concentrations, the formulation is diluted with emulsifier-containing water. If the addition of ammonium salts or/and penetrants is required, these are each added in a concentration of 1000 ppm to the formulation solution.
Cotton plants (Gossypium hirsutum) which are heavily infested by the cotton aphid (Aphis gossypii) are sprayed with an active compound formulation of the desired concentration.
After 6 days, the kill in % is determined. 100% means that all the aphids have been killed; 0% means that no aphids have been killed.

[5] = after 5 days, application rate 20 ppm
[6] = after 5 days, application rate 500 g/ha
[7] = after 6 days, application rate 20 ppm, cotton plants
[8] = after 6 days, application rate 500 g/ha
[9] = HPLC, neutral range pH 7.8, read-out: LogP-neutral
[10] = 120 h, after 5 days, application rate 500 g/ha
[11] = 144 h, MYZUPE, 100 g of ai/ha, 6 dat
[12] = 120 h, MYZUPE, 100 g of ai/ha, 5 dat

| Compound | LogP-neutral ([1]; pH 7.8) | efficacy [2, 5] [%] | efficacy [3, 6] [%] | efficacy (kill) [4, 7] [%] | other results |
| --- | --- | --- | --- | --- | --- |
| CN(C(=O)c1cnc(Oc2cccc(Cl)c2)n1C)c1cccnc1 [Example II-2] | – | – | – | – | chromatographic logP ([1]; pH 7.8, HPLC-MS, neutral, read-out: log P[n]): 2.1; Emax at 4 ppm [2]: 100%; pest or weed control at 20 ppm [2]: 100%; Emax at 100 g/ha ([3]; 144 h): 100%; pest or weed control at 500 g/ha ([3]; 144 h): 100%; pest or weed control at 20 ppm [4]: 100% |
| CC(C)Oc1ncc(C(=S)N(C)c2cccnc2)n1C [Example II-3] | 1.99 | 100 | 90 | 100 | – |
| CC(C)Oc1ncc(C(=O)N(C)c2ccc[n+]([O-])c2)n1C [Example II-4] | 1.03 | 100 | 90 | 100 | – |
| CCCOc1ncc(C(=O)N(C)c2cccnc2)n1C [Example II-5] | 1.52 | 90 | – | 100 | efficacy [3, 8]: 90% |
| CSCCOc1ncc(C(=O)N(C)c2cccnc2)n1C [Example II-6] | 1.45 | 100 | – | 99 | efficacy [3, 8]: 90% |
| COCCCOc1ncc(C(=O)N(C)c2cccnc2)n1C [Example II-7] | 1.27 | 100 | – | 100 | efficacy [3, 8]: 100% |
| CN(C(=O)c1cnc(OCc2cccnc2)n1C)c1cccnc1 [Example II-8] | 1.16 | 100 | – | 99 | efficacy [3, 8]: 90% |
| CN(C(=O)c1cnc(Oc2ccc(Cl)cc2)n1C)c1cccnc1 [Example II-9] | – | 100 | – | 100 | LogP-neutral ([1]; HPLC, neutral range pH 7.8): 2.09; efficacy [3, 8]: 90% |
| CCOc1ncc(C(=O)N(C)c2cccnc2)n1C [Example II-10] | 1.19 | 100 | – | 100 | efficacy [3, 8]: 100% |
| COc1ncc(C(=O)N(C)c2cccnc2)n1C [Example II-12] | – | – | – | – | chromatographic logP [1, 9]: 0.9; Emax at 0.8 ppm ([2]; MYZUPE O, 0.8 ppm, 5 dat): 100%; Emax at 4 ppm ([2]; MYZUPE O, 4 ppm, 5 dat): 100%; pest or weed control at 20 ppm [2, 5]: 100%; pest or weed control at 500 g/ha [3, 10]: 100%; Emax at 100 g/ha [3, 11]: 90%; pest or weed control at 20 ppm [4, 7]: 100% |
| CN(C(=O)c1cnc(Oc2ccc(Cl)nc2)n1C)c1cccnc1 [Example II-15] | – | – | – | – | chromatographic logP [1, 9]: 1.53; Emax at 0.8 ppm ([2]; MYZUPE O, 0.8 ppm, 5 dat): 100%; pest or weed control at 20 ppm [2, 5]: 100%; Emax at 100 g/ha [3, 11]: 100%; pest or weed control at 500 g/ha ([3]; 144 h, after 6 days, application rate 500 g/ha): 100%; pest or weed control at 20 ppm [4, 7]: 100% |
| CN(C(=O)c1cnc(Oc2ccc(F)cc2F)n1C)c1cccnc1 [Example II-17] | 1.86 | 100 | – | 100 | efficacy [3, 8]: 100% |
| CN(C(=O)c1cnc(Oc2ccccc2)n1C)c1cccnc1 [Example II-24] | – | 100 | 100 | 98 | LogP-neutral ([1]; HPLC, neutral range pH 7.8): 1.68 |
| CN(C(=O)c1cnc(Oc2cc(F)cc(F)c2)n1C)c1cccnc1 [Example II-25] | 2.01 | 100 | 90 | 90 | – |
| CSc1cccc(Oc2ncc(C(=O)N(C)c3cccnc3)n2C)c1 [Example II-26] | 2.09 | 100 | 100 | 100 | – |
| CN(C(=O)c1cnc(Oc2cccc(OC(F)(F)F)c2)n1C)c1cccnc1 [Example II-27] | 2.52 | 100 | 100 | 98 | – |
| CN(C(=O)c1cnc(Oc2cccc(C(F)(F)F)c2)n1C)c1cccnc1 [Example II-29] | – | – | – | – | chromatographic logP [1, 9]: 2.37; Emax at 0.8 ppm ([2]; MYZUPE O, 0.8 ppm, 5 dat): 100%; Emax at 4 ppm ([2]; MYZUPE O, 4 ppm, 5 dat): 100%; pest or weed control at 20 ppm [2, 5]: 100%; Emax at 100 g/ha [3, 12]: 90%; pest or weed control at 500 g/ha [3, 10]: 100%; pest or weed control at 20 ppm [4, 7]: 100% |

| Compound | LogP-neutral ([1]; pH 7.8) | efficacy [2, 5] [%] | efficacy [3, 6] [%] | efficacy (kill) [4, 7] [%] | other results |
| --- | --- | --- | --- | --- | --- |
| CN(C(=O)c1cnc(OCCSCC(F)(F)F)n1C)c1cccnc1 [Example II-30] | 1.97 | 100 | 100 | 100 | % efficacy ([2]; MYZUPE O, 0.8 ppm, 5 dat): 100%; % efficacy ([2]; MYZUPE O, 4 ppm, 5 dat): 100%; % efficacy ([3]; MYZUPE, 100 g of ai/ha, 5 dat): 90% |
| CN(C(=O)c1cnc(OC2CCSCC2)n1C)c1cccnc1 [Example II-31] | – | – | – | – | chromatographic logP [1, 9]: 1.63; Emax at 0.8 ppm ([2]; MYZUPE O, 0.8 ppm, 5 dat): 70%; Emax at 4 ppm ([2]; MYZUPE O, 4 ppm, 5 dat): 100%; pest or weed control at 20 ppm [2, 5]: 100%; Emax at 100 g/ha [3, 12]: 90%; pest or weed control at 500 g/ha [3, 10]: 100%; pest or weed control at 20 ppm [4, 7]: 98% |
| CN(C(=O)c1cnc(OC2CCOCC2)n1C)c1cccnc1 [Example II-32] | 1.18 | 100 | 90 | 100 | – |
| CN(C(=O)c1cnc(Oc2cccc(C(F)(F)F)c2F)n1C)c1cccnc1 [Example II-78] | 2.39 | 100 | 100 | – | – |
| Cc1cccc(Oc2ncc(C(=O)N(C)c3cccnc3)n2C)c1 [Example II-79] | – | 90 | 90 | – | LogP-neutral ([1]; HPLC, neutral range pH 7.8): 1.97 |
| CN(C(=O)c1cnc(Oc2cccc(S(C)(=O)=O)c2)n1C)c1cccnc1 [Example II-80] | 1.31 | 100 | 100 | – | – |
| CN(C(=O)c1cnc(Oc2ccc(F)c(C(F)(F)F)c2)n1C)c1cccnc1 [Example II-83] | 2.42 | – | 90 | – | efficacy ([2]; after 5 days, application rate 4 ppm): 100% |
| CON=Cc1cccc(Oc2ncc(C(=O)N(C)c3cccnc3)n2C)c1 [Example II-84] | 2.04 | 100 | 90 | – | – |
| Cc1ccc(Oc2ncc(C(=O)N(C)c3cccnc3)n2C)cc1Cl [Example II-85] | 2.45 | 90 | 100 | – | – |
| CN(C(=O)c1cnc(Oc2cc(F)cc(C(F)(F)F)c2)n1C)c1cccnc1 [Example II-86] | 2.55 | 100 | 100 | – | – |
| COc1cc(Cl)cc(Oc2ncc(C(=O)N(C)c3cccnc3)n2C)c1 [Example II-88] | 2.26 | 100 | 90 | – | – |
| Cn1c(C(=O)N(c2cccnc2)C2CC2)cnc1Oc1ccc(Cl)nc1 [Example II-90] | – | 100 | – | – | LogP-neutral ([1]; HPLC, neutral range pH 7.8): 1.8; efficacy ([3]; after 5 days, application rate 100 g/ha): 90% |
| Cn1c(C(=O)N(c2cccnc2)C2CC2)cnc1Oc1cncc(C(F)(F)F)c1 [Example II-91] | – | – | – | – | chromatographic logP [1, 9]: 2.1; Emax at 0.8 ppm ([2]; MYZUPE O, 0.8 ppm, 5 dat): 70%; Emax at 4 ppm ([2]; MYZUPE O, 4 ppm, 5 dat): 90%; pest or weed control at 20 ppm [2, 5]: 100%; Emax at 100 g/ha [3, 12]: 90%; pest or weed control at 500 g/ha [3, 10]: 90% |
| CCN(C(=O)c1cnc(Oc2cncc(C(F)(F)F)c2)n1C)c1cccnc1 [Example II-92] | 2.04 | 100 | 100 | – | – |
| Cn1c(C(=O)N(c2cccnc2)C2CC2)cnc1Oc1cccc(Cl)c1 [Example II-93] | – | 100 | 90 | – | LogP-neutral ([1]; HPLC, neutral range pH 7.8): 2.41 |
| CCN(C(=O)c1cnc(Oc2ccc(F)nc2)n1C)c1cccnc1 [Example II-95] | – | – | – | – | chromatographic logP [1, 9]: 1.55; Emax at 0.8 ppm [2]: 100%; Emax at 4 ppm [2]: 90%; pest or weed control at 20 ppm [2]: 100%; Emax at 100 g/ha ([3]; 120 h): 100%; pest or weed control at 500 g/ha ([3]; 120 h): 100% |

From US10647699B2, “Substituted 2-oxyimidazolylcarboxamides as pesticides” (Bayer CropScience Aktiengesellschaft, priority 2016, dated 2020)
